From patent US12258328B2, “6-membered heteroaryl-containing aminopyridine compounds as EGFR inhibitors” (YUHAN CORPORATION, priority 2021, dated 2025)
Like-named read-outs stand apart in the source and are kept apart here.

Tests used:
[1] = target: EGFR wildtype (Homo sapiens, UniProt P00533); experiment: Biochemical EGFR kinase assay (Lance Ultra TR-FRET), wildtype
Summary of the method: (§1)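 Step 1: compound in kinase buffer, 0.003–10 μM. Step 2: kinase reaction 1 h at room temperature. Step 4: TR-FRET read at 615/665 nm; IC50 calculated.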

[2] = target: EGFR L858R/T790M/C797S (Homo sapiens, UniProt P00533, C797S/L858R/T790M); experiment: Biochemical EGFR kinase assay (Lance Ultra TR-FRET), triple mutant L858R/T790M/C797S
Chain of EGFR L858R/T790M/C797S (P00533 25-1210 T790M/C797S/L858R): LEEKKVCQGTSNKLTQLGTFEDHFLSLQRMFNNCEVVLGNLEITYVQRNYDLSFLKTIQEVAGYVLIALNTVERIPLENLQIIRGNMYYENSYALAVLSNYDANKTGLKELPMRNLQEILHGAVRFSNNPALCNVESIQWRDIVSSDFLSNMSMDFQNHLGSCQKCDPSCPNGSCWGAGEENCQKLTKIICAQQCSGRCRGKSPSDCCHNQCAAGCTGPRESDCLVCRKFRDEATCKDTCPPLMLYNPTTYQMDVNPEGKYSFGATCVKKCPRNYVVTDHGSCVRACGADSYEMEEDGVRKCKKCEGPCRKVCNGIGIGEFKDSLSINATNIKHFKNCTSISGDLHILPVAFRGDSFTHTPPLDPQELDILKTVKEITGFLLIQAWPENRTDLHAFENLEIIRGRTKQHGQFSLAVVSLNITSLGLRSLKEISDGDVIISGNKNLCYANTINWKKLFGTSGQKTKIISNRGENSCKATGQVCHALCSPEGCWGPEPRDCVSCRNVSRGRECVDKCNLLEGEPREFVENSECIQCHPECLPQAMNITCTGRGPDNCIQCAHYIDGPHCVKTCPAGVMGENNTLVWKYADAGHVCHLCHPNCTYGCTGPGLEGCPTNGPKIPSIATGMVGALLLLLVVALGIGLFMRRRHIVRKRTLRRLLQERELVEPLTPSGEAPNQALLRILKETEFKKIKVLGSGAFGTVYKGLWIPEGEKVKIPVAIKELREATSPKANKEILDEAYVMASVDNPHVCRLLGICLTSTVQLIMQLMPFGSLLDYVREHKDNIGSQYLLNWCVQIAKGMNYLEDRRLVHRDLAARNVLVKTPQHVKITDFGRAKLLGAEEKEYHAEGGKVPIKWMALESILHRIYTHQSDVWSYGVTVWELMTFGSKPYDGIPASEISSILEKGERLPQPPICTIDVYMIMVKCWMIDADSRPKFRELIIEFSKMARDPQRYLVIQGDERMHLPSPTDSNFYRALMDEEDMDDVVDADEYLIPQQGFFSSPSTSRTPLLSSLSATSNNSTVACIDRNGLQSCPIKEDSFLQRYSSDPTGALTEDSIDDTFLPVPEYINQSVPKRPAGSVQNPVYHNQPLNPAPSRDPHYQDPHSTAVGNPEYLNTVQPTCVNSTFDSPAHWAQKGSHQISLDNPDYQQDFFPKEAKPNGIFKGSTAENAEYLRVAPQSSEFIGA
Summary of the method: as §1

[3] = target: EGFR del19/C797S (Homo sapiens, UniProt P00533, C797S/DEL746-750); experiment: Biochemical EGFR kinase assay (Lance Ultra TR-FRET), double mutant del19/C797S
Summary of the method: as §1

[4] = target: EGFR L858R/C797S (Homo sapiens, UniProt P00533, C797S/L858R); experiment: Biochemical EGFR kinase assay (Lance Ultra TR-FRET), double mutant L858R/C797S
Chain of EGFR L858R/C797S (P00533 25-1210 C797S/L858R): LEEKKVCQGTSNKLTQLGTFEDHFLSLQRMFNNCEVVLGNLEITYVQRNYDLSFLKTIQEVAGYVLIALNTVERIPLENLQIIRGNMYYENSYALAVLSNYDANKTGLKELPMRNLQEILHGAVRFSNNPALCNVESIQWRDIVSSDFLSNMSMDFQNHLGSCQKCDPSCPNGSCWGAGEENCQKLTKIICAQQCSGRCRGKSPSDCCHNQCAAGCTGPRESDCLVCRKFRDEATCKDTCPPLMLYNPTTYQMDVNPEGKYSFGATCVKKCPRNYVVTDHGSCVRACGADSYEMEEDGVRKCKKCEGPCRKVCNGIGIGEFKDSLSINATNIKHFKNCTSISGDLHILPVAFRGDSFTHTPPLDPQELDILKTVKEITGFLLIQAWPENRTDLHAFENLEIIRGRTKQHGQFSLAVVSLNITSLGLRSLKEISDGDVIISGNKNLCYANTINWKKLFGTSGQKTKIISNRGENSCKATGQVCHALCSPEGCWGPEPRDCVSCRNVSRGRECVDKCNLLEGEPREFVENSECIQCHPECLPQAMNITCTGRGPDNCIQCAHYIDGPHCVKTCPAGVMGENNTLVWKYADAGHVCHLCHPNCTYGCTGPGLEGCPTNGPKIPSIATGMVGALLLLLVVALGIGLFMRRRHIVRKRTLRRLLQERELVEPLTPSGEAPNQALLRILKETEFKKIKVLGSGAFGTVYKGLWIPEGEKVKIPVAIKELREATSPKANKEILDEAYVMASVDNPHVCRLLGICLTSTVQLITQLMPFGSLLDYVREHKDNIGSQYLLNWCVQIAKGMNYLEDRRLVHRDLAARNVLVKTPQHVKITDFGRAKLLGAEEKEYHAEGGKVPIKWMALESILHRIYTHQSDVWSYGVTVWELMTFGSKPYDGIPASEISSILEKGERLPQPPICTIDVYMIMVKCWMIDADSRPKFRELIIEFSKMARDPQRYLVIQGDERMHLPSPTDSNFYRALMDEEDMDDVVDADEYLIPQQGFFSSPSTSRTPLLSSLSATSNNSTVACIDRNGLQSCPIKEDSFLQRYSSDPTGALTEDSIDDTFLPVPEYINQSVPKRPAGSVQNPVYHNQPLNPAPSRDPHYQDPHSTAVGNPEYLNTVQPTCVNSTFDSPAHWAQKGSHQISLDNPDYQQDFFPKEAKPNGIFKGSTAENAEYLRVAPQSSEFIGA
Summary of the method: as §1

[5] = target: EGFR del19/T790M/C797S (Homo sapiens, UniProt P00533, C797S/DEL746-750/T790M); experiment: Biochemical EGFR kinase assay (Lance Ultra TR-FRET), triple mutant del19/T790M/C797S
Chain of EGFR del19/T790M/C797S (P00533 with tags, fused parts or gaps DEL746-750/T790M/C797S): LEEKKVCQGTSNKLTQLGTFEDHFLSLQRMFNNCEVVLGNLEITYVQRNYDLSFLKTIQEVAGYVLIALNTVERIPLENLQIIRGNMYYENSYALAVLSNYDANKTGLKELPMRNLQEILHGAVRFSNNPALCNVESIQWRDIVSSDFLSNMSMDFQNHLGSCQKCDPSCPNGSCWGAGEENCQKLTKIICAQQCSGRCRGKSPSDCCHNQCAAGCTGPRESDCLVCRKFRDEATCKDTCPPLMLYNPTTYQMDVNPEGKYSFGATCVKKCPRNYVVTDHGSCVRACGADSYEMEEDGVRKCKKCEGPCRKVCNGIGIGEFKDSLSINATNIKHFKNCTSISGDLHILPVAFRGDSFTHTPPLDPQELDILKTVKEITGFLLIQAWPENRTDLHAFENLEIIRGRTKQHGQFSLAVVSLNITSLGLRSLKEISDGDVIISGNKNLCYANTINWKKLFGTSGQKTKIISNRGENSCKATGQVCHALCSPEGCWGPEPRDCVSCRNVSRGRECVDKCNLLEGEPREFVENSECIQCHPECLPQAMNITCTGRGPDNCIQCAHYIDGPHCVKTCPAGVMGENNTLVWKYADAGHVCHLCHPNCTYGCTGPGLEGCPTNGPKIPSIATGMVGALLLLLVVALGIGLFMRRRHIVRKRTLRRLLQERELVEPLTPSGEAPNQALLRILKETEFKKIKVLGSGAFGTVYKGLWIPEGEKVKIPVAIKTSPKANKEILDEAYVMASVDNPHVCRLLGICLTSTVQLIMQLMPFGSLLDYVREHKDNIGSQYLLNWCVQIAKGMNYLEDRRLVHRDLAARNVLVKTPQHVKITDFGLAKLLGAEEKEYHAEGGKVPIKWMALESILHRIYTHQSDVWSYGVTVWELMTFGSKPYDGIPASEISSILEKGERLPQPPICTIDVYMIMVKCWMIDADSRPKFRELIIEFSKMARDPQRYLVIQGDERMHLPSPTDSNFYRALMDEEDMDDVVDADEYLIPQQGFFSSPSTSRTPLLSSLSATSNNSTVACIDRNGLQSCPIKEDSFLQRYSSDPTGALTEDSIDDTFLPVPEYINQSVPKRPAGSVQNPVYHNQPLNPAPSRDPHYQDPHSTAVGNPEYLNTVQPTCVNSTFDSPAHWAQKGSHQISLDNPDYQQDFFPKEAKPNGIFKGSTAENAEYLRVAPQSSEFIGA
Summary of the method: as §1

[6] = IC50 WT (nM) 100 μM ATP, 100 μM ATP
[7] = Km ATP, read-out: IC50 WT (nM) Km ATP
[8] = IC50 L858R/T790M/C797S (nM) 100 μM ATP, 100 μM ATP
[9] = Km ATP, read-out: IC50 L858R/T790M/C797S (nM) Km ATP
[10] = IC50 del19/C797S (nM) 100 μM ATP, 100 μM ATP
[11] = Km ATP, read-out: IC50 del19/C797S (nM) Km ATP
[12] = Km ATP, read-out: IC50 L858R/C797S (nM) Km ATP
[13] = IC50 del19/T790M/C797S (nM) 100 μM ATP, 100 μM ATP
[14] = Km ATP, read-out: IC50 del19/T790M/C797S (nM) Km ATP
[15] = ATP at Km, read-out: IC50 WT, Km ATP
[16] = ATP at Km, read-out: IC50 L858R/T790M/C797S, Km ATP
[17] = ATP at Km, read-out: IC50 del19/C797S, Km ATP
[18] = ATP at Km, read-out: IC50 L858R/C797S, Km ATP
[19] = ATP at Km, read-out: IC50 del19/T790M/C797S, Km ATP
[20] = IC50 L858R/T790M/C797S, 100 μM ATP
[21] = IC50 del19/T790M/C797S, 100 μM ATP
[22] = IC50 L858R/C797S (nM) 100 μM ATP, 100 μM ATP

Chain of EGFR wildtype (P00533 25-1210): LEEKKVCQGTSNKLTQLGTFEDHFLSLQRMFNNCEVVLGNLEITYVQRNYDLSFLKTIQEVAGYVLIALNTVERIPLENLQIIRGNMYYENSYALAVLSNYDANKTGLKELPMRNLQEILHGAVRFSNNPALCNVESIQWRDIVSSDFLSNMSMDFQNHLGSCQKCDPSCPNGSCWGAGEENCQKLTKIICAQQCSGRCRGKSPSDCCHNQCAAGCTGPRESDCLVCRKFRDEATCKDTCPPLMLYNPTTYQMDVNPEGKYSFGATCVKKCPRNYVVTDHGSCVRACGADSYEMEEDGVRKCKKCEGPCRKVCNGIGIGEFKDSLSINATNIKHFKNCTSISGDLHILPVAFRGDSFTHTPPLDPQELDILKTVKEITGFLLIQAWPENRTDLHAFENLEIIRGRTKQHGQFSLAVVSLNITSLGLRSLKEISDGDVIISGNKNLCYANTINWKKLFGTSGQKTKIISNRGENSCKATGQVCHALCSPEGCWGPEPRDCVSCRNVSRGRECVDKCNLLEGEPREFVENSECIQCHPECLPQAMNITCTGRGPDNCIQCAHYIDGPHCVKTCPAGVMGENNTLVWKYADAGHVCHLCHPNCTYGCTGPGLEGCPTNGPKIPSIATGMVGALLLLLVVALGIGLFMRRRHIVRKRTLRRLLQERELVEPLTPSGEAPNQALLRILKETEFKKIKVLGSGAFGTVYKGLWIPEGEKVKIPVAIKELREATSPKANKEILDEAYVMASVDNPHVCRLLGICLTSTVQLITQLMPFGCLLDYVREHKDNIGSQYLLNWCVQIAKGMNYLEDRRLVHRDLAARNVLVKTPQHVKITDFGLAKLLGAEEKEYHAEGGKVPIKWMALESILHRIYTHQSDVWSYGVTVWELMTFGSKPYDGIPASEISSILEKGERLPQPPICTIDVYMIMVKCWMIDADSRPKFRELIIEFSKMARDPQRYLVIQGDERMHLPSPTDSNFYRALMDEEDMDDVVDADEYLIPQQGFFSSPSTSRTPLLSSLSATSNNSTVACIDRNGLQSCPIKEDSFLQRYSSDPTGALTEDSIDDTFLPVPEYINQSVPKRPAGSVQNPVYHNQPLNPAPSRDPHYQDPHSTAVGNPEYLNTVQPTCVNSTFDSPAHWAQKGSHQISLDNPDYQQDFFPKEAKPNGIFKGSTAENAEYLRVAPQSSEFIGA

SMILES	IC50 [1, 6]	IC50 [1, 7]	IC50 [2, 8]	IC50 [2, 9]	IC50 [3, 10]	IC50 [3, 11]	IC50 [4, 12]	IC50 [5, 13]	IC50 [5, 14]	IC50 [1, 15]	IC50 [2, 16]	IC50 [3, 17]	IC50 [4, 18]	IC50 [5, 19]	IC50 ([1]; IC50 WT, 100 μM ATP)	IC50 [2, 20]	IC50 ([3]; IC50 del19/C797S, 100 μM ATP)	IC50 ([4]; IC50 L858R/C797S, 100 μM ATP)	IC50 [5, 21]	IC50 [4, 22]
CC(C)(O)c1cnc(-c2cnc(Nc3ccnc(-c4cnn(S(=O)(=O)C5CC5)c4)n3)cc2N[C@H]2CC[C@@H](C(C)(C)O)CC2)cn1 [Example 120, 2-(5-(6-((2-(1-(Cyclopropylsulfonyl)-1H-pyrazol-4-yl)pyrimidin-4-yl)amino)-4-(((1s,4s)-4-(2-hydroxypropan-2-yl)cyclohexyl)amino)pyridin-3-yl)pyrazin-2-yl)propan-2-ol]	968 nM	4.3 nM	0.4 nM	0.1 nM	0.7 nM	0.5 nM	0.1 nM	0.2 nM	0.2 nM											
CC(C)Nc1cc(Nc2ccnc(-c3cnn(S(=O)(=O)C4CC4)c3)n2)ncc1-c1ccc(N2CCOCC2)cn1 [Example 124, N^6′-(2-(1-(Cyclopropylsulfonyl)-1H-pyrazol-4-yl)pyrimidin-4-yl)-N^4′-isopropyl-5-morpholino-[2,3′-bipyridine]-4′,6′-diamine]		12.7 nM		0.4 nM		3.3 nM	0.4 nM		0.3 nM											
O=S(=O)(C1CC1)n1cc(-c2nccc(Nc3cc(NC4CCC(F)(F)CC4)c(-c4ccc(N5CCC(F)(F)CC5)nn4)cn3)n2)cn1 [Example 268, N^2-(2-(1-(Cyclopropylsulfonyl)-1H-pyrazol-4-yl)pyrimidin-4-yl)-N^4-(4,4-difluorocyclohexyl)-5-(6-(4,4-difluoropiperidin-1-yl)pyridazin-3-yl)pyridine-2,4-diamine]										4770 nM	22.4 nM	762 nM	1220 nM	28.9 nM						
CN1CCC(Oc2cccc(-c3cnc(Nc4ccnc(-c5cnn(S(=O)(=O)C6CC6)c5)n4)cc3N[C@H]3CC[C@@](C)(O)CC3)n2)CC1 [Example 286, (1s,4s)-4-((6′-((2-(1-(Cyclopropylsulfonyl)-1H-pyrazol-4-yl)pyrimidin-4-yl)amino)-6-((1-methylpiperidin-4-yl)oxy)-[2,3′-bipyridin]-4′-yl)amino)-1-methylcyclohexan-1-ol]											0.1 nM	0.3 nM	0.1 nM	0.2 nM	735 nM	0.3 nM	0.3 nM	2.5 nM	0.3 nM	
CC1(O)CCC(Nc2cc(Nc3ccnc(-c4cnn(S(=O)(=O)C5CC5)c4)n3)ncc2-c2cnc(OC3CCOC3)cn2)CC1 (stereo not drawn) [Example 149, (1s,4s)-4-((2-((2-(1-(Cyclopropylsulfonyl)-1H-pyrazol-4-yl)pyrimidin-4-yl)amino)-5-(5-((tetrahydrofuran-3-yl)oxy)pyrazin-2-yl)pyridin-4-yl)amino)-1-methylcyclohexan-1-ol]		11.2 nM		0.3 nM		1 nM	0.4 nM		0.4 nM											
CC(C)(O)[C@H]1CC[C@@H](Nc2cc(Nc3ccnc(-c4cnn(S(=O)(=O)C5CC5)c4)n3)ncc2-c2cnc(OC(F)F)cn2)CC1 [Example 130, 2-((1s,4s)-4-((2-((2-(1-(Cyclopropylsulfonyl)-1H-pyrazol-4-yl)pyrimidin-4-yl)amino)-5-(5-(difluoromethoxy)pyrazin-2-yl)pyridin-4-yl)amino)cyclohexyl)propan-2-ol]		> 10000 nM		1.7 nM		281 nM	239 nM		3.9 nM											
CN(C)Cc1cnc(-c2cnc(Nc3ccnc(-c4cnn(S(=O)(=O)C5CC5)c4)n3)cc2N[C@H]2CC[C@@](C)(O)CC2)cn1 [Example 65, (1s,4s)-4-((2-((2-(1-(Cyclopropylsulfonyl)-1H-pyrazol-4-yl)pyrimidin-4-yl)amino)-5-(5-((dimethylamino)methyl)pyrazin-2-yl)pyridin-4-yl)amino)-1-methylcyclohexan-1-ol]	1140 nM	2.4 nM	0.3 nM	0.1 nM	0.2 nM	0.3 nM	0.1 nM	0.1 nM	0.1 nM											0.9 nM
O=S(=O)(C1CC1)n1cc(-c2nccc(Nc3cc(N[C@H]4CC[C@@H](CO)CC4)c(-c4cc(C(F)F)ccn4)cn3)n2)cn1 [Example 77, ((1s,4s)-4-((6′-((2-(1-(Cyclopropylsulfonyl)-1H-pyrazol-4-yl)pyrimidin-4-yl)amino)-4-(difluoromethyl)-[2,3′-bipyridin]-4′-yl)amino)cyclohexyl)methanol]	1560 nM	4 nM	1.4 nM	1.1 nM	2.3 nM	2.2 nM	4.1 nM	1.7 nM	2.1 nM											13 nM
CC(O)(c1ccc(-c2cnc(Nc3ccnc(-c4cnn(S(=O)(=O)C5CC5)c4)n3)cc2N[C@H]2CCC[C@H](CO)C2)nc1)C(F)(F)F (stereo partly drawn) [Example 232, 2-(6′-((2-(1-(Cyclopropylsulfonyl)-1H-pyrazol-4-yl)pyrimidin-4-yl)amino)-4′-(((1S,3S)-3-(hydroxymethyl)cyclohexyl)amino)-[2,3′-bipyridin]-5-yl)-1,1,1-trifluoropropan-2-ol]										19 nM	0.8 nM	3.3 nM	6.7 nM	3.9 nM	8760 nM	0.8 nM	9.5 nM	60.2 nM	2.1 nM	
CN1CCN(C(=O)c2ccc(-c3cnc(Nc4ccnc(-c5cnn(S(=O)(=O)C6CC6)c5)n4)cc3N[C@H]3CC[C@@H](CN(C)C)CC3)nc2)CC1 [Example 204, (6′-((2-(1-(Cyclopropylsulfonyl)-1H-pyrazol-4-yl)pyrimidin-4-yl)amino)-4′-(((1s,4s)-4-((dimethylamino)methyl)cyclohexyl)amino)-[2,3′-bipyridin]-5-yl)(4-methylpiperazin-1-yl)methanone]										0.4 nM	0.1 nM	0.2 nM	0.1 nM	0.1 nM	124 nM	0.1 nM	0.2 nM	1 nM	0.1 nM	
CC(C)Nc1cc(Nc2ccnc(-c3cnn(S(=O)(=O)C4CC4)c3)n2)ncc1-c1ccc(C(O)C(F)(F)F)cn1 (stereo not drawn) [Example 294, 1-(6′-((2-(1-(Cyclopropylsulfonyl)-1H-pyrazol-4-yl)pyrimidin-4-yl)amino)-4′-(isopropylamino)-[2,3′-bipyridin]-5-yl)-2,2,2-trifluoroethan-1-ol]										28 nM	2.3 nM	60.8 nM	38.5 nM	9.8 nM						
O=S(=O)(C1CC1)n1cc(-c2nccc(Nc3cc(N[C@H]4CC[C@@H](CO)CC4)c(-c4ccc(OCCO)cn4)cn3)n2)cn1 [Example 206, 2-((6′-((2-(1-(Cyclopropylsulfonyl)-1H-pyrazol-4-yl)pyrimidin-4-yl)amino)-4′-(((1s,4s)-4-(hydroxymethyl)cyclohexyl)amino)-[2,3′-bipyridin]-5-yl)oxy)ethan-1-ol]										1.2 nM	0.3 nM	0.7 nM	0.4 nM	0.6 nM	348 nM	0.4 nM	0.6 nM	2.4 nM	0.9 nM	
